Values quoted from earlier work as cited in patent publication US10300065B2, “Method of treating or prevention of atherothrombotic events in patients with history of myocardial infarction” (ASTRAZENECA AB, priority 2015, dated 2019).

Key:
[1] = tested on: patients with acute coronary syndrome; details: PLATO, cited from earlier work
[2] = human, in vivo, po; cited from earlier work

Row | SMILES | serum uric acid level increase from baseline ([1]; clopidogrel) | reports of gout ([1]; each treatment group) [%] | AUC and cmax of crushed tablets relative to whole tablets (bioequivalence) [2]
1 | COC(=O)[C@H](c1ccccc1Cl)N1CCc2sccc2C1 [clopidogrel] | approximately 0.2 mg/dL | 0.6 | –
2 | CCCSc1nc(N[C@@H]2C[C@H]2c2ccc(F)c(F)c2)c2nnn([C@@H]3C[C@H](O)[C@@H](O)[C@H]3O)c2n1 [AR-C124910XX] | – | – | 80-125%
